For the assay, the system named is WEHI 164 cells. The assay can be described thus: In vitro cytotoxicity assay: protection of WEHI 164 cells from TNF-α cytotoxicity (AlamarBlue). Type of assay: cell-based, mouse. On the procedure:
In vitro cytotoxicity assay Cell line
The murine fibrosarcoma cell line L929 is widely used for testing TNF-α cytotoxicity in vitro. In addition, other cell lines are available that are more sensitive, such as the WEHI 164, a mouse myosarcoma cell line. Both cell lines were initially screened for use in the following experiments and WEHI 164 cells were chosen for their higher sensitivity.
Cells are maintained in serum free medium Ultraculture (Biowhittaker) with the addition of 2 mM Glutamine. The assay is carried out in the same serum free medium.
In the cytotoxicity assay, a susceptible cell line (WEHI 164) is incubated in medium containing serial dilutions of TNF-α for a set time and the consequent cytotoxic activity, manifested as inhibition of cell growth and/or cell death, is evaluated by spectrophotometer measurements of vital dye uptake.
Peptide stock solutions are made in HBSS at the concentration of 1 mg/ml, sterilized by passage through a 0.20 μm×13 mm cellulose acetate filters (Corning). The solutions were used for no longer than 10 days. All the other dilutions needed for the test were prepared just before the assay in sterile manner using the medium Ultraculture.
WEHI 164 cells are taken from logarithmic growth and seeded in 96 well microtiter plates at the density of 2500 cells/well. The assay is performed 48 hours later, at a cell density of approximately 3000 cells/well. Cells are pre-incubated with serial dilutions of peptides for 30 minutes, then TNF-α is added to the wells and incubated for 16 hours at 37° C. Samples are repeated in triplicate.
Control wells for non treated cells contain medium only. A concentration curve of TNF-α is performed for every assay at concentrations ranging between 200 and 1 ng/ml. A control for full protection from TNF-α cytotoxicity is carried out by pre-incubating TNF-α with A2 antibody (Centocor, Malvern Pa.) for 30 minutes then adding it to the cells.
After 16 hour incubation, the vital dye AlamarBlue (Alamar Biosciences) is added in the amount equal to 10% final volume. The plates are returned to the incubator for 6-10 hours.
Absorbance is evaluated at 570 nm, subtracting the background absorbance measured at 595 nm in a BioRad microtiter plate reader.
Values are expressed as a percentage of cell survival, where the control samples (containing medium only) are referred to as 100%.
A general note: Resazurin is reduced to fluorescent resorufin, in cell work by metabolically active cells.

The mark [1] stands for this setting: 2.5 μg/ml peptide, TNF 5 ng/ml, 16 h.
Setting [2] is: 25 μg/ml peptide, TNF 5 ng/ml, 16 h.
Where [3] appears, read: 50 μg/ml peptide, TNF 25 ng/ml, 16 h.
Setting [4] is: 100 μg/ml peptide, TNF 25 ng/ml, 16 h.
Where [5] appears, read: 25 μg/ml peptide, TNF 25 ng/ml, 16 h.
Setting [6] is: 50 μg/ml peptide, TNF 25 pg/ml, 16 h.
The mark [7] stands for this setting: 100 μg/ml peptide, TNF 25 pg/ml, 16 h.

Here are results for twelve substances from patent publication US6107273A, “Tumor necrosis factor inhibitors” (Thomas Jefferson University, priority 1995, dated 2000).

“And” between values parts separate entries of the source, which are not always exact repeats. Equal values may be shown once. Square brackets hold non-standard residues; d marks the D form. Ends that are not written are not given here. Pen = CC(C)(S)[C@H](N)C(=O)O; Aib = CC(C)(N)C(=O)O

“CSYQTKC (cysteine pairing not given here) [Peptide 522]”: the “% cell survival” value stood at 81% under setting [1] and 111% under setting [2]. As for “CEGAEC (cysteine pairing not given here) [Peptide 561]”, the “% cell survival” value under setting [3] is reported as 92 ± 20% and the “% cell survival” value under setting [4] was determined as 90 ± 10%.

On to “[Pen]E[Aib]E[Pen] (cysteine pairing not given here) [Peptide 556]”, for which the “% cell survival” value under setting [5] came out at 69 ± 18% and the “% cell survival” value under setting [3] came to 71 ± 14%. “CPQAEGQLC (cysteine pairing not given here) [Peptide 510]”: the “% cell survival” value is, setting by setting: under setting [6], 59.3 ± 1%; under setting [7], 60.4 ± 3%. Consider “Pen-Thr-Pro-Glu-Gly-Ala-Glu-Ala-Pen ([Pen]TPEGAEA[Pen]; cysteine pairing not given here) [Peptide 562]”, for which the “% cell survival” value amounted to 25.2 ± 7% under setting [6] and 33.1 ± 7% under setting [7].

As for “CPETPEGAEAKPC (cysteine pairing not given here) [Peptide 506]”, the “% cell survival” value reads like this: under setting [1], 68%; under setting [2], 88.1%.

On to “CRIAVSYQTKVC (cysteine pairing not given here) [Peptide 557]”, for which the “% cell survival” value under setting [3] is 70 ± 3% and the “% cell survival” value under setting [4] turned out to be 65 ± 4%.

For the substance “CPRETPEGAEAKPC (cysteine pairing not given here) [Peptide 505]”, under “100 μg/ml peptide, 30 min pre-incubation, then TNF-α 16 h, TNF concentration not printed (table 1)”, the “% cell survival” value is 62.7 ± 4% and 32.5 ± 3%. On to “CIAVSYQTKC (cysteine pairing not given here) [Peptide 558]”, for which the “% cell survival” value is recorded as 24 ± 8% under setting [3] and 26 ± 7% under setting [4]. “CRRANA[dC] (cysteine pairing not given here) [Peptide 512]”: the “% cell survival” value is reported as 70.8 ± 6% under setting [6] and 65.6 ± 8% under setting [7]. On to “CARDNQAC (cysteine pairing not given here) [Peptide 509]”, for which the “% cell survival” value was 21 ± 5% (2.5 μg/ml peptide, TNF 25 ng/ml, 16 h) and 28.4% under setting [5]. Take “CSYQTKVC (cysteine pairing not given here) [Peptide 521]”: the “% cell survival” value is reported as 56.51 ± 3% under setting [6] and 65.26 ± 4% under setting [7].
